Measurements taken from PubChem BioAssay AID2060499 (Molecular Pharmacology Branch, DTP, NCI, 2025).

Test system: 777334-354-R2-J4-PDC tumor spheroids with HUVEC/MSC, viability
Assay: Anticancer human tumor 777334-354-R2-J4-PDC patient-derived pancreatic adenocarcinoma cell line growth inhibition [GQUAD]
Conditions: for IC50: curve of first compound; for viability, T/C: stronger effect = lower value
Summary of the method: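 Tumor cells were grown as complex spheroids with HUVEC endothelial cells and mesenchymal stem cells as stroma. G-quadruplex stabilizers were combined with targeted agents over half-log dilutions from near the clinical Cmax, or from 10 microM.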

[1] = second compound 0.0316 µM, first compound 0.0316 µM
[2] = second compound 0.0316 µM, first compound 0.1 µM
[3] = second compound 0.0316 µM, first compound 0.316 µM
[4] = second compound 0.0316 µM, first compound 1 µM
[5] = second compound 0.0316 µM, first compound 3.16 µM
[6] = second compound 0.0316 µM, first compound 10 µM
[7] = second compound 0.1 µM, first compound 0.0316 µM
[8] = second compound 0.1 µM, first compound 0.1 µM
[9] = second compound 0.1 µM, first compound 0.316 µM
[10] = second compound 0.1 µM, first compound 1 µM
[11] = second compound 0.1 µM, first compound 3.16 µM
[12] = second compound 0.1 µM, first compound 10 µM
[13] = second compound 0.316 µM, first compound 0.0316 µM
[14] = second compound 0.316 µM, first compound 0.1 µM
[15] = second compound 0.316 µM, first compound 0.316 µM
[16] = second compound 0.316 µM, first compound 1 µM
[17] = second compound 0.316 µM, first compound 3.16 µM
[18] = second compound 0.316 µM, first compound 10 µM
[19] = second compound 1 µM, first compound 0.0316 µM
[20] = second compound 1 µM, first compound 0.1 µM
[21] = second compound 1 µM, first compound 0.316 µM
[22] = second compound 1 µM, first compound 1 µM
[23] = second compound 1 µM, first compound 3.16 µM
[24] = second compound 1 µM, first compound 10 µM
[25] = second compound 3.16 µM, first compound 0.0316 µM
[26] = second compound 3.16 µM, first compound 0.1 µM
[27] = second compound 3.16 µM, first compound 0.316 µM
[28] = second compound 3.16 µM, first compound 1 µM
[29] = second compound 3.16 µM, first compound 3.16 µM
[30] = second compound 3.16 µM, first compound 10 µM
[31] = second compound 10 µM, first compound 0.0316 µM
[32] = second compound 10 µM, first compound 0.1 µM
[33] = second compound 10 µM, first compound 0.316 µM
[34] = second compound 10 µM, first compound 1 µM
[35] = second compound 10 µM, first compound 3.16 µM
[36] = second compound 10 µM, first compound 10 µM
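Further: spheroids exposed to compounds for 7 days before readout.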

SMILES: C#Cc1c(F)ccc2cc(O)cc(-c3ncc4c(N5CC6CCC(C5)N6)nc(OCC56CCCN5CC(F)C6)nc4c3F)c12 (stereo unspecified) + Cc1cnc(CNC(=O)c2c(=O)c3ccc(N4CCCN(C)CC4)nc3n3c2sc2ccccc23)cn1
- IC50 (second compound 0.0316 µM): < 31.6 nM
- IC50 (second compound 0.1 µM): < 31.6 nM
- IC50 (second compound 0.316 µM): < 31.6 nM
- IC50 (second compound 1 µM): < 31.6 nM
- IC50 (second compound 3.16 µM): < 31.6 nM
- IC50 (second compound 10 µM): < 31.6 nM
- viability, T/C [1]: 49.7%
- viability, T/C [2]: 38.7%
- viability, T/C [3]: 31.4%
- viability, T/C [4]: 31.6%
- viability, T/C [5]: 27.1%
- viability, T/C [6]: 24.2%
- viability, T/C [7]: 45.1%
- viability, T/C [8]: 34.4%
- viability, T/C [9]: 30.9%
- viability, T/C [10]: 26.4%
- viability, T/C [11]: 23.5%
- viability, T/C [12]: 21.3%
- viability, T/C [13]: 39.6%
- viability, T/C [14]: 33.8%
- viability, T/C [15]: 28.8%
- viability, T/C [16]: 25.6%
- viability, T/C [17]: 22.6%
- viability, T/C [18]: 19.9%
- viability, T/C [19]: 36.2%
- viability, T/C [20]: 29.4%
- viability, T/C [21]: 31.1%
- viability, T/C [22]: 23.6%
- viability, T/C [23]: 21.9%
- viability, T/C [24]: 19.4%
- viability, T/C [25]: 28%
- viability, T/C [26]: 25.5%
- viability, T/C [27]: 22.8%
- viability, T/C [28]: 19.2%
- viability, T/C [29]: 17.5%
- viability, T/C [30]: 14.4%
- viability, T/C [31]: 22%
- viability, T/C [32]: 16.7%
- viability, T/C [33]: 15%
- viability, T/C [34]: 8.71%
- viability, T/C [35]: 8.87%
- viability, T/C [36]: 3.17%

SMILES: CC(=O)O[C@H]1C(=O)[C@@]2(C)[C@H]([C@H](OC(=O)c3ccccc3)[C@]3(O)C[C@H](OC(=O)[C@H](O)[C@@H](NC(=O)c4ccccc4)c4ccccc4)C(C)=C1C3(C)C)[C@]1(OC(C)=O)CO[C@@H]1C[C@@H]2O + Cc1cnc(CNC(=O)c2c(=O)c3ccc(N4CCCN(C)CC4)nc3n3c2sc2ccccc23)cn1
- IC50 (second compound 0.0316 µM): > 10000 nM
- IC50 (second compound 0.1 µM): > 10000 nM
- IC50 (second compound 0.316 µM): > 10000 nM
- IC50 (second compound 1 µM): > 10000 nM
- IC50 (second compound 3.16 µM): > 10000 nM
- IC50 (second compound 10 µM): > 10000 nM
- viability, T/C [1]: 70%
- viability, T/C [2]: 49.9%
- viability, T/C [3]: 53.5%
- viability, T/C [4]: 43%
- viability, T/C [5]: 52.1%
- viability, T/C [6]: 52.8%
- viability, T/C [7]: 78.2%
- viability, T/C [8]: 54.7%
- viability, T/C [9]: 61.6%
- viability, T/C [10]: 45.4%
- viability, T/C [11]: 60.9%
- viability, T/C [12]: 59.7%
- viability, T/C [13]: 74.3%
- viability, T/C [14]: 61.9%
- viability, T/C [15]: 61.5%
- viability, T/C [16]: 68.1%
- viability, T/C [17]: 64.2%
- viability, T/C [18]: 62.1%
- viability, T/C [19]: 65%
- viability, T/C [20]: 63.5%
- viability, T/C [21]: 61%
- viability, T/C [22]: 67.3%
- viability, T/C [23]: 80.5%
- viability, T/C [24]: 70.1%
- viability, T/C [25]: 57%
- viability, T/C [26]: 66.5%
- viability, T/C [27]: 63.6%
- viability, T/C [28]: 58.4%
- viability, T/C [29]: 71.6%
- viability, T/C [30]: 74.1%
- viability, T/C [31]: 61.2%
- viability, T/C [32]: 50.1%
- viability, T/C [33]: 55.8%
- viability, T/C [34]: 58.4%
- viability, T/C [35]: 60.6%
- viability, T/C [36]: 52.3%

SMILES: CC[C@@]1(O)C(=O)OCc2c1cc1n(c2=O)Cc2cc3c(CN(C)C)c(O)ccc3nc2-1 + Cc1cnc(CNC(=O)c2c(=O)c3ccc(N4CCCN(C)CC4)nc3n3c2sc2ccccc23)cn1
- IC50 (second compound 0.0316 µM): 172 nM
- IC50 (second compound 0.1 µM): 241 nM
- IC50 (second compound 0.316 µM): 222 nM
- IC50 (second compound 1 µM): 233 nM
- IC50 (second compound 3.16 µM): 225 nM
- IC50 (second compound 10 µM): 78.7 nM
- viability, T/C (second compound 0.0316 µM, first compound 0.000999 µM): 90.1%
- viability, T/C (second compound 0.0316 µM, first compound 0.00316 µM): 79.8%
- viability, T/C (second compound 0.0316 µM, first compound 0.00999 µM): 95.2%
- viability, T/C [1]: 80.7%
- viability, T/C (second compound 0.0316 µM, first compound 0.0999 µM): 59.4%
- viability, T/C [3]: 39.7%
- viability, T/C (second compound 0.1 µM, first compound 0.000999 µM): 102%
- viability, T/C (second compound 0.1 µM, first compound 0.00316 µM): 74.7%
- viability, T/C (second compound 0.1 µM, first compound 0.00999 µM): 83.1%
- viability, T/C [7]: 66.8%
- viability, T/C (second compound 0.1 µM, first compound 0.0999 µM): 60.8%
- viability, T/C [9]: 45%
- viability, T/C (second compound 0.316 µM, first compound 0.000999 µM): 73.8%
- viability, T/C (second compound 0.316 µM, first compound 0.00316 µM): 76.3%
- viability, T/C (second compound 0.316 µM, first compound 0.00999 µM): 76.7%
- viability, T/C [13]: 70.1%
- viability, T/C (second compound 0.316 µM, first compound 0.0999 µM): 59.3%
- viability, T/C [15]: 46%
- viability, T/C (second compound 1 µM, first compound 0.000999 µM): 64.7%
- viability, T/C (second compound 1 µM, first compound 0.00316 µM): 74.8%
- viability, T/C (second compound 1 µM, first compound 0.00999 µM): 76%
- viability, T/C [19]: 69.5%
- viability, T/C (second compound 1 µM, first compound 0.0999 µM): 57%
- viability, T/C [21]: 47%
- viability, T/C (second compound 3.16 µM, first compound 0.000999 µM): 56.8%
- viability, T/C (second compound 3.16 µM, first compound 0.00316 µM): 67.7%
- viability, T/C (second compound 3.16 µM, first compound 0.00999 µM): 62.2%
- viability, T/C [25]: 63.3%
- viability, T/C (second compound 3.16 µM, first compound 0.0999 µM): 54.9%
- viability, T/C [27]: 47.4%
- viability, T/C (second compound 10 µM, first compound 0.000999 µM): 56.1%
- viability, T/C (second compound 10 µM, first compound 0.00316 µM): 57.9%
- viability, T/C (second compound 10 µM, first compound 0.00999 µM): 60.2%
- viability, T/C [31]: 53.2%
- viability, T/C (second compound 10 µM, first compound 0.0999 µM): 47.8%
- viability, T/C [33]: 38.9%
